Measurements from the NIST ThermoML archive (doi:10.1016/j.jct.2018.08.004).

Assay: xn = mol fraction of the nth substance listed
Settings: for surface tension liquid-gas: Maximal bubble pressure; for mass density: 100 kPa, Liquid, Vibrating tube method

CCCC[n+]1ccccc1.N#C[N-]C#N [1-butylpyridinium dicyanamide] + CCO
Settings	mass density [kg/m3]	surface tension liquid-gas [mN/m]
288.15 K, x1 = 0.0999	877.29	25.7
288.15 K, x1 = 0.201	930.73	28
288.15 K, x1 = 0.2996	967.04	30.3
288.15 K, x1 = 0.3993	994.22	33.2
288.15 K, x1 = 0.4897	1013.42	35.8
288.15 K, x1 = 0.6017	1032.37	38.3
288.15 K, x1 = 0.693	1044.81	40.9
288.15 K, x1 = 0.7974	1056.62	44.5
288.15 K, x1 = 0.905	1066.7	50.3
288.15 K, x1 = 1	1074.97	56.3
293.15 K, x1 = 0.0999	873.42	25.1
293.15 K, x1 = 0.201	927.12	27.5
293.15 K, x1 = 0.2996	963.57	29.8
293.15 K, x1 = 0.3993	990.86	32.9
293.15 K, x1 = 0.4897	1010.13	35.5
293.15 K, x1 = 0.6017	1029.14	38
293.15 K, x1 = 0.693	1041.62	40.6
293.15 K, x1 = 0.7974	1053.47	44.2
293.15 K, x1 = 0.905	1063.59	50
293.15 K, x1 = 1	1071.9	56
298.15 K, x1 = 0.0999	869.54	24.6
298.15 K, x1 = 0.201	923.5	27.1
298.15 K, x1 = 0.2996	960.1	29.5
298.15 K, x1 = 0.3993	987.5	32.6
298.15 K, x1 = 0.4897	1006.84	35.2
298.15 K, x1 = 0.6017	1025.91	37.7
298.15 K, x1 = 0.693	1038.43	40.3
298.15 K, x1 = 0.7974	1050.31	43.9
298.15 K, x1 = 0.905	1060.48	49.7
298.15 K, x1 = 1	1068.83	55.7
303.15 K, x1 = 0.0999	865.66	24.2
303.15 K, x1 = 0.201	919.87	26.7
303.15 K, x1 = 0.2996	956.64	29.1
303.15 K, x1 = 0.3993	984.14	32.3
303.15 K, x1 = 0.4897	1003.56	34.9
303.15 K, x1 = 0.6017	1022.7	37.4
303.15 K, x1 = 0.693	1035.25	40
303.15 K, x1 = 0.7974	1047.18	43.6
303.15 K, x1 = 0.905	1057.35	49.4
303.15 K, x1 = 1	1065.76	55.5
308.15 K, x1 = 0.0999	861.77	23.8
308.15 K, x1 = 0.201	916.25	26.3
308.15 K, x1 = 0.2996	953.18	28.8
308.15 K, x1 = 0.3993	980.79	31.9
308.15 K, x1 = 0.4897	1000.29	34.5
308.15 K, x1 = 0.6017	1019.5	37
308.15 K, x1 = 0.693	1032.09	39.7
308.15 K, x1 = 0.7974	1044.05	43.3
308.15 K, x1 = 0.905	1054.26	49.1
308.15 K, x1 = 1	1062.7	55.2
313.15 K, x1 = 0.0999	857.88	23.4
313.15 K, x1 = 0.201	912.63	25.9
313.15 K, x1 = 0.2996	949.73	28.3
313.15 K, x1 = 0.3993	977.47	31.4
313.15 K, x1 = 0.4897	997.04	34.1
313.15 K, x1 = 0.6017	1016.31	36.7
313.15 K, x1 = 0.693	1028.95	39.4
313.15 K, x1 = 0.7974	1040.95	43.1
313.15 K, x1 = 0.905	1051.18	48.8
313.15 K, x1 = 1	1059.66	54.9
318.15 K, x1 = 0.0999	853.98	22.7
318.15 K, x1 = 0.201	909.01	25.4
318.15 K, x1 = 0.2996	946.29	27.9
318.15 K, x1 = 0.3993	974.15	31.1
318.15 K, x1 = 0.4897	993.79	33.8
318.15 K, x1 = 0.6017	1013.14	36.4
318.15 K, x1 = 0.693	1025.82	39
318.15 K, x1 = 0.7974	1037.86	42.7
318.15 K, x1 = 0.905	1048.12	48.6
318.15 K, x1 = 1	1056.64	54.5
